Laboratory results reported in patent US11208407B2, “Substituted phenyl compounds as indoleamine 2,3-dioxygenase (IDO) inhibitors” (Merck Sharp & Dohme Corp., priority 2017, dated 2021).

Experiments:
IDO1 [1] = molecular target: T1, IDO1 (Homo sapiens, UniProt P14902); experiment: IDO1 Cellular Assay in HeLa Cells Stimulated with IFNγ; type: cell-based; settings: IFNγ 100 ng/mL, 300 uM L-tryptophan, about 48 hours, read-out: IDO HeLa Cell Assay, IC50
Method: Biological Assays IDO1 Cellular Assay in HeLa Cells Stimulated with IFNγ
HeLa cells were cultured in complete HeLa culture medium (90% EMEM, 10% heat-inactivated fetal bovine serum) and expanded to about 1×10^9 cells. The cells were then collected and frozen down at 1×10^7 cells/vial in 1 mL frozen medium (90% complete HeLa culture medium, 10% DMSO).
Compounds to be tested were serially diluted in ten 3-fold steps in DMSO starting from 10 mM DMSO stocks in Echo low volume plate(s). Compound dilutions or DMSO alone were then dispensed from the dilution plate(s) into Greiner black 384-well assay plate(s) (catalog #781086, 50 nL/well) using an Echo 550 acoustic liquid handler (Labcyte).
Frozen HeLa cells were thawed and transferred into HeLa assay medium (99% complete HeLa culture medium, 1% Pen/Strep) with 20 mL medium/vial of cells. The cells were spun down at 250 g in a table top centrifuge for 5 min and suspended in same volume of HeLa assay medium. The cells were then counted and adjusted to a density of 2×10^5 cells/mL in HeLa assay medium. Sterile L-tryptophan were added to the cells with final concentration of 300 uM L-tryptophan. A small aliquot (2 mL/plate) of HeLa cells were set aside and were not treated with IFNγ, to serve as the Max-E control.
HeLa cells with and without IFNγ were dispensed to the respective wells of 384-well assay plates containing the compounds. The plates were incubated for about 48 hours at a 37° C., 5% CO2 incubator. Afterwards, 12 μL of 0.5 M methyl isonipecotate in dimethyl sulfoxide were added into each well and the plates were sealed and incubated at 37° C. without CO2 overnight. The plates were centrifuged for 1 min at 200×g. The resulting fluorescence was measured in a Spectramax plate reader (Molecular Devices) with a 400 nm excitation filter and a 510 nm emission filter.
The fluorescence intensity of each well was corrected for the background observed in wells with non-IFNγ-treated cells and was expressed as a fraction of the intensity observed in wells of IFNγ-treated cells and DMSO only. Potencies were calculated by linear least squares fit to the four parameter logistic IC50 equation.

IDO1 [2] = molecular target: T1, IDO1; experiment: IDO1 Human Whole Blood Assay; type: cell-based; parameters: Human whole blood was drawn in sodium heparin coated tubes from healthy internal donors; from tissue; host or cells: Human whole blood from healthy donors, stimulated with LPS and IFNγ; settings: LPS and IFNγ 100 ng/mL, 18 h, kynurenine by LC/MS/MS
Method: IDO1 Human Whole Blood Assay
Compounds to be tested were serially diluted in ten 3-fold steps in DMSO starting from 10 mM. 3 µL of compound dilutions or DMSO alone were then dispensed from the dilution plate into a polypropylene 96-well assay plate containing 97 µL of RPMI medium using an Echo 555 acoustic liquid handler (Labcyte). LPS (lipopolysaccharide) and IFNγ was prepared in RPMI to a 10× of final conc. (1000 ng/mL), final concentration is 100 ng/mL.
Human whole blood was drawn in sodium heparin coated tubes from healthy internal donors. 240 µL of blood was transferred to each of the wells of a v-bottom 96 well plate. 30 µL of compound was transferred from intermediate dilution plate, and incubated for 15 min. 30 μL from stimulants was then transferred to blood and mixed thoroughly. Plate was covered with breathable membrane and incubated at 37° C. for overnight (18 h).
On day 2, isotope labeled standard solutions of kunurenine and tryptophan was made in water at 10× concentration and 30 µL was added to the blood at 3 µM final concentration. The assay plates were centrifuged at 300×G for 10 min with no brake to separate plasma from red blood cells. 60 µL of plasma samples was removed without disturbing red blood cells. Plasma was diluted with RPMI medium in 1:1 ratio and proteins were precipitated out with two volumes of Acetonitrile. The plates were centrifuged at 4000×G for 60 min. 20 µL of supernatant was carefully transferred to a 384 well plate containing 40 µL of 0.1% formic acid in water and analyzed by LC/MS/MS.
LC/MS/MS analyses were performed using Thermo Fisher's LX4-TSQ Quantum Ultra system. This system consists of four Agilent binary high-performance liquid chromatography (HPLC) pumps and a TSQ Quantum Ultra triple quadrupole MS/MS instrument. For each sample, 5 µL were injected onto an Atlantis T3 column (2.1 mm×150 mm, 3 µm particle size) from Waters. The mobile phase gradient pumped at 0.8 mL/min was used to elute the analytes from the column at 25° C. The elution started at 0% B increasing linearly to 25% B at 6.5 min, holding at 25% for 1 min, re-equilibrating to 10 min. Mobile phase A consisted of 0.1% formic acid in water. Mobile phase B consisted of 0.1% of formic acid in acetonitrile. Data was acquired in positive mode using a HESI interface. The operational parameters for the TSQ Quantum Ultra instrument were a spray voltage of 4000 V, capillary temperature of 380° C., vaporizer temperature 400° C., shealth gas 60 arbitrary units, Aux gas 20 arbitrary units, tube lens 85 and collision gas 1.2 mTorr. SRM (selected-reaction monitoring) chromatograms of kynurenine (Q1: 209.2>Q3:94.0) and internal standard (Q1: 215.3>Q3:98.2) were collected for 90 sec. The peak area was integrated by Xcalibur Quan software. The ratios between the kynurenine generated in the reaction and 2D6-Kynurenine spiked-in internal standard were used to generate percentage inhibition and IC50 values. Compounds were titrated and IC50's were calculated by 4 parameter sigmoidal curve fitting formula.

T1 sequence (P14902 whole entry): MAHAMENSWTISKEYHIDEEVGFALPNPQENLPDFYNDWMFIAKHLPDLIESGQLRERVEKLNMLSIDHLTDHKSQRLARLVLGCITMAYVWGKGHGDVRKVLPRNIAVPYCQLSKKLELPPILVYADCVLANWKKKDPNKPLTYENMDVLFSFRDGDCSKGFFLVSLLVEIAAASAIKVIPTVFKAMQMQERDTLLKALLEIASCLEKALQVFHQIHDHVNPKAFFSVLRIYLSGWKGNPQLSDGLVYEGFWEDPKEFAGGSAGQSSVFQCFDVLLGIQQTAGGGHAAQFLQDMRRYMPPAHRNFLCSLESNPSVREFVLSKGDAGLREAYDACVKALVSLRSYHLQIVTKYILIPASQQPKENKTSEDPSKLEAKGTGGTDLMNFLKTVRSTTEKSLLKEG

| SMILES | IC50 (IDO1 [1]) [nM] | IC50 (IDO1 [2]) [nM] |
| --- | --- | --- |
| N#Cc1cccc(C(=O)Nc2ccc(C3(c4nc5cc(Br)cnc5[nH]4)CCC3)cc2F)c1 [Example 16, N-(4-(1-(6-bromo-3H-imidazo[4,5-b]pyridin-2-yl)cyclobutyl)-2-fluorophenyl)-3-cyanobenzamide] | 1.17 | 35.5 |
| N#Cc1cccc(C(=O)Nc2ccc(C3(c4nc5ccc(Cl)cc5[nH]4)COC3)cc2)c1 [Example 11, N-(4-(3-(6-chloro-1H-benzo[d]imidazol-2-yl)oxetan-3-yl)phenyl)-3-cyanobenzamide] | 1.56 | 22.9 |
| O=C(Nc1ccc(C2(c3nc4ncc(C(F)(F)F)cc4[nH]3)CCC2)cc1)c1cccc(Cl)c1 [Example 1, 3-Chloro-N-(4-(1-(6-(trifluoromethyl)-1H-imidazo[4,5-b]pyridin-2-yl)cyclobutyl)phenyl)benzamide] | 1.53 | 74.7 |
| N#Cc1cccc(C(=O)Nc2ccc(C3(c4nc5ncc(Cl)cc5[nH]4)CCC3)cc2)c1 [Example 10, N-{4-[1-(6-chloro-1H-imidazo[4,5-b]pyridin-2-yl)cyclobutyl]phenyl}-3-cyanobenzamide] | 3.25 | 132 |
| N#Cc1cccc(C(=O)Nc2ccc(C3(c4nc5cc(C(F)(F)F)cnc5[nH]4)CCC3)cc2F)c1 [Example 19, 3-cyano-N-(2-fluoro-4-{1-[6-(trifluoromethyl)-3H-imidazo[4,5-b]pyridin-2-yl]cyclobutyl}phenyl) benzamide] | 0.944 | 43.7 |
| N#Cc1cccc(C(=O)Nc2ccc(C3(c4nc5ccc(Cl)cc5[nH]4)CC(F)C3)cc2)c1 (stereo not drawn) [Example 25, N-(4-(1-(6-chloro-1H-benzo[d]imidazol-2-yl)-3-fluorocyclobutyl)phenyl)-3-cyanobenzamide] | 1.07 | 47.6 |
| N#Cc1cccc(C(=O)Nc2ccc(C3(c4nc5ccc(C(F)(F)F)cc5[nH]4)CCC3)cc2)c1 [Example 7, 3-cyano-N-(4-{1-[6-(trifluoromethyl)-1H-benzimidazol-2-yl]cyclobutyl}phenyl)benz-amide] | 1.1 | 40.3 |
| N#Cc1cccc(C(=O)Nc2ccc(C3(c4nc5ncc(C#N)cc5[nH]4)CCC3)cc2)c1 [Example 3, 3-Cyano-N-(4-(1-(6-cyano-1H-imidazo[4,5-b]pyridin-2-yl)cyclobutyl)phenyl)benzamide] | 3.97 | 75.1 |
| N#Cc1cccc(C(=O)Nc2ccc(C3(c4nc5cc(C#N)cnc5[nH]4)CCC3)cc2F)c1 [Example 17, 3-Cyano-N-(4-(1-(6-cyano-3H-imidazo[4,5-b]pyridin-2-yl)cyclobutyl)-2-fluorophenyl)benzamide] | 1.71 | 118 |
| O=C(Nc1ccc(C2(c3nc4ncccc4[nH]3)CCC2)cc1)c1cccc(Cl)c1 [Example 5, N-(4-(1-(1H-imidazo[4,5-b]pyridin-2-yl)cyclobutyl)phenyl)-3-chlorobenzamide] | 2.85 | 192 |

Continued, values first:

| IC50 (IDO1 [1]) [nM] | IC50 (IDO1 [2]) [nM] | SMILES |
| --- | --- | --- |
| 1.1 | 91 | OCc1cc(C(F)(F)F)ncc1-c1ccc(C2(c3nc4ccc(Cl)cc4[nH]3)CCC2)cc1 [Example 52, [5-{4-[1-(6-chloro-1H-benzimidazol-2-yl)cyclobutyl]phenyl}-2-(trifluoromethyl)pyridin-4-yl]methanol] |
| 2.28 | 238 | OCc1cc(C(F)(F)F)ncc1-c1ccc(C2(c3nc4ncc(Cl)cc4[nH]3)CCC2)cc1 [Example 46, [5-{4-[1-(6-chloro-1H-imidazo[4,5-b]pyridin-2-yl)cyclobutyl]phenyl}-2-(trifluoromethyl)pyridin-4-yl]methanol] |
| 2.16 | 445 | Cc1cc(OC(F)F)nc(C)c1-c1ccc(C2(c3nc4cc(C(F)(F)F)cnc4[nH]3)COC2)cc1 [Example 42, 2-(3-{4-[6-(difluoromethoxy)-2,4-dimethylpyridin-3-yl]phenyl}oxetan-3-yl)-6-(trifluoromethyl)-3H-imidazo[4,5-b]pyridine] |
| 3.6 | 182 | Cc1cc(C2CC2)ncc1-c1ccc(C2(c3nc4ncc(C#N)cc4[nH]3)CCC2)cc1 [Example 39, 2-(1-(4-(6-Cyclopropyl-4-methylpyridin-3-yl)phenyl)cyclobutyl)-1H-imidazo[4,5-b]pyridine-6-carbonitrile] |
| 2.44 | 130 | Cc1cc(OC(F)F)nc(C)c1-c1ccc(C2(c3nc4cc(Cl)ccc4[nH]3)CCC2)cc1 [Example 48, 5-chloro-2-(1-{4-[6-(difluoromethoxy)-2,4-dimethylpyridin-3-yl]phenyl}cyclobutyl)-1H-benzimidazole] |
| 1.7 | 72.9 | CC(C)(O)c1cc(C(F)(F)F)ncc1-c1ccc(C2(c3nc4cc(Cl)ccc4[nH]3)CCC2)cc1 [Example 49, 2-[5-{4-[1-(5-chloro-1H-benzimidazol-2-yl)cyclobutyl]phenyl}-2-(trifluoromethyl)pyridin-4-yl]propan-2-ol] |
| 2.22 | 1660 | Cc1cc(OC(F)F)ncc1-c1ccc(C2(c3nc4cc(C(F)(F)F)cnc4[nH]3)COC2)cc1 [Example 44, 2-(3-{4-[6-(difluoromethoxy)-4-methylpyridin-3-yl]phenyl}oxetan-3-yl)-6-(trifluoromethyl)-3H-imidazo[4,5-b]pyridine] |
| 3.03 | 4040 | OCc1cc(C(F)(F)F)ncc1-c1ccc(C2(c3nc4ncc(Cl)cc4[nH]3)COC2)cc1 [Example 50, (5-(4-(3-(6-chloro-1H-imidazo[4,5-b]pyridin-2-yl)oxetan-3-yl)phenyl)-2-(trifluoromethyl)pyridin-4-yl)methanol] |
| 1.76 | 284 | OCc1cc(C(F)(F)F)ncc1-c1ccc(C2(c3nc4ccc(Cl)cc4[nH]3)COC2)cc1 [Example 51, [5-{4-[3-(6-chloro-1H-benzimidazol-2-yl)oxetan-3-yl]phenyl}-2-(trifluoromethyl)pyridin-4-yl]methanol] |
| 15.4 | 2700 | OCc1cc(C(F)(F)F)ncc1-c1ccc(C2(c3nc4cc(C(F)(F)F)cnc4[nH]3)COC2)cc1 [Example 45, [2-(trifluoromethyl)-5-(4-{3-[6-(trifluoromethyl)-3H-imidazo[4,5-b]pyridin-2-yl]oxetan-3-yl}phenyl)pyridin-4-yl]methanol] |
| 3.94 | 191 | OCc1cc(OC(F)F)ncc1-c1ccc(C2(c3nc4cc(Cl)ccc4[nH]3)CCC2)cc1 [Example 47, [5-{4-[1-(5-chloro-1H-benzimidazol-2-yl)cyclobutyl]phenyl}-2-(difluoromethoxy)pyridin-4-yl]methanol] |
